Measured values reported in ChEMBL document CHEMBL1135897, “Design and synthesis of a novel L-dopa-entacapone codrug” (J Med Chem, 2002).

Key:
[1] = Half-life period for the hydrolysis to entacopone and […] was determined in a liver homogenate at pH 7.4.; format: ADME, tissue-based
[2] = The half-life period, to be stable in the stomach and liver at pH 5.0, was determined; format: ADME, tissue-based

For `CCN(CC)C(=O)/C(C#N)=C/c1cc(OC(=O)N[C@@H](Cc2ccc(O)c(O)c2)C(=O)OC)c(O)c([N+](=O)[O-])c1`, which half-life [1] is on record?
Its half-life is 7 min.

And the half-life [2]?
The half-life was 66 min.
